ChEMBL document CHEMBL1667746, “Synthesis, antimicrobial activity and structure-activity relationship study of N,N-dibenzyl-cyclohexane-1,2-diamine derivatives” (Eur J Med Chem, 2011)
≈ marks a conversion by molar mass, not a printed value. Calls of active or inactive are those of the source. No cut-off for these calls is given here.

Tests used:
[1] = Toxicity in human RBC assessed as hemolysis at 1024 ug/ml; format: cell-based, Erythrocyte; details: for Activity: erythrocyte; for hemolysis at 1024 ug/ml: red blood cells, read-out: Activity
Candida albicans = test: Antifungal activity against Candida albicans MTCC 3017 after 24 hrs micro dilution assay; format: functional
Escherichia coli = test: Antibacterial activity against Escherichia coli after 24 hrs micro dilution assay; format: functional
Geotrichum candidum = test: Antifungal activity against Geotrichum candidum NCIM 980 after 24 hrs micro dilution assay; format: functional
[2] = system: Staphylococcus epidermidis; test: Antibacterial activity against Staphylococcus epidermidis after 24 hrs micro dilution assay; format: functional
Nakaseomyces glabratus = test: Antifungal activity against Candida glabrata MTCC 3019 after 24 hrs micro dilution assay; format: functional
Pseudomonas aeruginosa = test: Antibacterial activity against Pseudomonas aeruginosa after 24 hrs micro dilution assay; format: functional
Staphylococcus aureus = test: Antibacterial activity against Staphylococcus aureus after 24 hrs micro dilution assay; format: functional
[3] = Escherichia coli, 24 h, read-out: MIC
[4] = Staphylococcus epidermidis, 24 h, read-out: MIC
[5] = Pseudomonas aeruginosa, 24 h, read-out: MIC
[6] = Staphylococcus aureus, 24 h, read-out: MIC

| Structure (SMILES) | MIC (Candida albicans) | MIC (Escherichia coli; [3]) | MIC (Geotrichum candidum; NCIM 980, 24 h) | MIC [2, 4] | MIC (Nakaseomyces glabratus) | MIC (Pseudomonas aeruginosa; [5]) | MIC (Staphylococcus aureus) | MIC (Staphylococcus aureus; [6]) | MIC (Candida albicans; MTCC 3017, 24 h) | MIC (Escherichia coli) | MIC [2] | MIC (Pseudomonas aeruginosa) | MIC (Nakaseomyces glabratus; MTCC 3019, 24 h) | MIC (Geotrichum candidum) | Activity [1] | hemolysis at 1024 ug/ml [1] |
| --- | --- | --- | --- | --- | --- | --- | --- | --- | --- | --- | --- | --- | --- | --- | --- | --- |
| Cl.Fc1cccc(CNC2CCCCC2NCc2cccc(F)c2)c1 (stereo not given) | inactive | 0.25 µg/mL | 0.5 µg/mL | 0.25 µg/mL | inactive | 0.25 µg/mL | inactive |  |  |  |  |  |  |  | Non-toxic |  |
| Cl.O=[N+]([O-])c1ccccc1CNC1CCCCC1NCc1ccccc1[N+](=O)[O-] (stereo not given) |  |  |  |  |  |  | inactive |  |  | inactive | inactive | inactive |  |  | Non-toxic |  |
| c1ccc(CNC2CCCCC2NCc2ccccc2)cc1 (stereo not given) |  |  |  |  |  |  | inactive |  |  | inactive | inactive | inactive |  |  |  |  |
| Cc1cccc(CNC2CCCCC2NCc2cccc(C)c2)c1.Cl (stereo not given) | inactive | 0.125 µg/mL | 0.25 µg/mL | 0.25 µg/mL | inactive | 0.065 µg/mL |  | 0.032 µg/mL |  |  |  |  |  |  |  | 4.78% |
| C[C@@H]1[C@H](O)[C@@H](C)/C=C/C=C/C=C/C=C/C=C/C=C/C=C/[C@H](O[C@@H]2O[C@H](C)[C@@H](O)[C@H](N)[C@@H]2O)C[C@@H]2O[C@](O)(C[C@@H](O)C[C@@H](O)[C@H](O)CC[C@@H](O)C[C@@H](O)CC(=O)O[C@H]1C)C[C@H](O)[C@H]2C(=O)O [AMPHOTERICIN B] |  |  | 6.25 µg/mL (≈ 6.76 µM) |  |  |  |  |  | 0.3 µg/mL (≈ 0.325 µM) |  |  |  | 50 µg/mL (≈ 54.1 µM) |  |  |  |
| Brc1ccc(CNC2CCCCC2NCc2ccc(Br)cc2)cc1.Cl (stereo not given) |  | 0.25 µg/mL | 0.032 µg/mL | 0.032 µg/mL |  | 0.032 µg/mL |  | 0.016 µg/mL | 0.125 µg/mL |  |  |  | 0.125 µg/mL |  | Non-toxic |  |
| Cl.O=[N+]([O-])c1cccc(CNC2CCCCC2NCc2cccc([N+](=O)[O-])c2)c1 (stereo not given) |  | 0.5 µg/mL |  | 1 µg/mL |  | 0.25 µg/mL |  | 0.5 µg/mL |  |  |  |  |  |  | Non-toxic |  |
| Clc1ccccc1CNC1CCCCC1NCc1ccccc1Cl (stereo not given) |  |  |  |  |  |  | inactive |  |  | inactive | inactive | inactive |  |  |  | 9.83% |
| Cc1ccc(CNC2CCCCC2NCc2ccc(C)cc2)cc1.Cl (stereo not given) | inactive | 0.25 µg/mL | 0.25 µg/mL | 0.25 µg/mL | inactive | 0.125 µg/mL |  | 0.125 µg/mL |  |  |  |  |  |  |  | 19.2% |
| Cl.O=[N+]([O-])c1ccc(CNC2CCCCC2NCc2ccc([N+](=O)[O-])cc2)cc1 (stereo not given) | inactive |  | 0.5 µg/mL |  | inactive | 0.125 µg/mL | inactive |  |  | inactive | inactive |  |  |  | Non-toxic |  |
| Cl.FC(F)(F)c1ccccc1CNC1CCCCC1NCc1ccccc1C(F)(F)F (stereo not given) |  | 0.25 µg/mL | 0.5 µg/mL | 0.065 µg/mL | inactive | 0.032 µg/mL |  | 0.065 µg/mL | 0.5 µg/mL |  |  |  |  |  | Non-toxic |  |
| Cl.FC(F)(F)c1ccc(C(F)(F)F)c(CNC2CCCCC2NCc2cc(C(F)(F)F)ccc2C(F)(F)F)c1 (stereo not given) |  |  |  |  |  |  | inactive |  |  | inactive | inactive | inactive |  |  | Non-toxic |  |
| Cl.FC(F)(F)c1ccc(CNC2CCCCC2NCc2ccc(C(F)(F)F)cc2C(F)(F)F)c(C(F)(F)F)c1 (stereo not given) |  |  |  |  |  |  | inactive |  |  | inactive | inactive | inactive |  |  | Non-toxic |  |
| COc1ccc(CNC2CCCCC2NCc2ccc(OC)cc2)cc1.Cl (stereo not given) |  |  |  |  |  |  | inactive |  |  | inactive | inactive | inactive |  |  | Non-toxic |  |
| Brc1ccccc1CNC1CCCCC1NCc1ccccc1Br.Cl (stereo not given) |  |  |  |  |  |  | inactive |  |  | inactive | inactive | inactive |  |  | Non-toxic |  |
| Brc1cccc(CN[C@H]2CCCC[C@@H]2NCc2cccc(Br)c2)c1.Cl (racemic) |  |  |  |  |  |  | 0.008 µg/mL |  |  | 0.016 µg/mL | 0.032 µg/mL | 0.032 µg/mL |  |  |  |  |

Now from value to molecule, other results behind:

| MIC (Candida albicans) | MIC (Escherichia coli; [3]) | MIC (Geotrichum candidum; NCIM 980, 24 h) | MIC [2, 4] | MIC (Nakaseomyces glabratus) | MIC (Pseudomonas aeruginosa; [5]) | MIC (Staphylococcus aureus) | MIC (Staphylococcus aureus; [6]) | MIC (Candida albicans; MTCC 3017, 24 h) | MIC (Escherichia coli) | MIC [2] | MIC (Pseudomonas aeruginosa) | MIC (Nakaseomyces glabratus; MTCC 3019, 24 h) | MIC (Geotrichum candidum) | Structure (SMILES) | Activity [1] | hemolysis at 1024 ug/ml [1] |
| --- | --- | --- | --- | --- | --- | --- | --- | --- | --- | --- | --- | --- | --- | --- | --- | --- |
| inactive | 0.125 µg/mL | 0.25 µg/mL | 0.25 µg/mL | inactive | 0.125 µg/mL |  | 0.25 µg/mL |  |  |  |  |  |  | Cc1ccccc1CNC1CCCCC1NCc1ccccc1C.Cl (stereo not given) | Non-toxic |  |
|  | 0.032 µg/mL | 0.032 µg/mL | 0.032 µg/mL | inactive | 0.065 µg/mL | inactive |  | 0.125 µg/mL |  |  |  |  |  | Cl.Clc1cccc(CN[C@H]2CCCC[C@@H]2NCc2cccc(Cl)c2)c1 (racemic) |  |  |
|  | 0.065 µg/mL | 0.065 µg/mL | 0.065 µg/mL |  | 0.25 µg/mL |  | 0.008 µg/mL | 0.125 µg/mL |  |  |  | 0.25 µg/mL |  | Brc1cccc(CNC2CCCCC2NCc2cccc(Br)c2)c1.Cl (stereo not given) | Non-toxic |  |
|  | 0.032 µg/mL |  | 0.032 µg/mL |  | 0.016 µg/mL |  | 0.016 µg/mL |  |  |  |  |  |  | Cl.Clc1ccc(CNC2CCCCC2NCc2ccc(Cl)cc2Cl)c(Cl)c1 (racemic) |  |  |
|  | 0.001 µg/mL (≈ 0.00225 µM) |  | 0.002 µg/mL (≈ 0.0045 µM) |  |  |  | 0.001 µg/mL (≈ 0.00225 µM) |  |  |  |  |  |  | CN(C)[C@@H]1C(O)=C(C(N)=O)C(=O)[C@@]2(O)C(O)=C3C(=O)c4c(O)cccc4[C@@](C)(O)[C@H]3C[C@@H]12 [TETRACYCLINE] |  |  |
|  | 0.032 µg/mL | 0.065 µg/mL | 0.032 µg/mL |  | 0.008 µg/mL |  | 0.032 µg/mL | 0.125 µg/mL |  |  |  | 0.125 µg/mL |  | Cl.Clc1cccc(CNC2CCCCC2NCc2cccc(Cl)c2)c1 (stereo not given) |  | 9.68% |
|  | 0.004 µg/mL |  | 0.008 µg/mL |  | 0.0005 µg/mL |  | 0.008 µg/mL | 0.008 µg/mL |  |  |  | 0.016 µg/mL | inactive | CC(C)c1ccc(CNC2CCCCC2NCc2ccc(C(C)C)cc2)cc1.Cl (stereo not given) |  | 81.8% |
|  | 0.008 µg/mL | 0.032 µg/mL | 0.008 µg/mL |  | 0.004 µg/mL |  | 0.008 µg/mL | 0.032 µg/mL |  |  |  | 0.032 µg/mL |  | CCc1ccc(CNC2CCCCC2NCc2ccc(CC)cc2)cc1.Cl (stereo not given) |  | 38.3% |
|  | 0.032 µg/mL | 0.065 µg/mL | 0.032 µg/mL |  | 0.008 µg/mL |  | 0.016 µg/mL | 0.125 µg/mL |  |  |  | 0.065 µg/mL |  | Cl.FC(F)(F)c1ccc(CN[C@H]2CCCC[C@@H]2NCc2ccc(C(F)(F)F)cc2)cc1 | Non-toxic |  |
|  | 0.032 µg/mL | 0.065 µg/mL | 0.032 µg/mL |  | 0.008 µg/mL |  | 0.008 µg/mL | 0.125 µg/mL |  |  |  | 0.125 µg/mL |  | Cl.FC(F)(F)c1ccc(CNC2CCCCC2NCc2ccc(C(F)(F)F)cc2)cc1 (stereo not given) | Non-toxic |  |
| inactive | 0.032 µg/mL | 0.125 µg/mL | 0.065 µg/mL |  | 0.008 µg/mL |  | 0.016 µg/mL |  |  |  |  | 0.125 µg/mL |  | Cl.FC(F)(F)c1cccc(CN[C@H]2CCCC[C@@H]2NCc2cccc(C(F)(F)F)c2)c1 |  | 3.7% |
|  | 0.032 µg/mL |  | 0.032 µg/mL |  | 0.032 µg/mL |  | 0.032 µg/mL |  |  |  |  |  |  | Cl.Clc1ccc(CN[C@H]2CCCC[C@@H]2NCc2ccc(Cl)cc2)cc1 |  | 4.8% |
|  | 0.008 µg/mL | 0.008 µg/mL | 0.008 µg/mL |  | 0.0005 µg/mL |  | 0.008 µg/mL | 0.008 µg/mL |  |  |  | 0.008 µg/mL |  | CCCCc1ccc(CNC2CCCCC2NCc2ccc(CCCC)cc2)cc1.Cl (stereo not given) |  | 7.68% |
|  | 0.065 µg/mL | 0.125 µg/mL | 0.032 µg/mL |  | 0.25 µg/mL |  | 0.016 µg/mL | 0.125 µg/mL |  |  |  | 0.25 µg/mL |  | Cl.FC(F)(F)c1cccc(CNC2CCCCC2NCc2cccc(C(F)(F)F)c2)c1 (stereo not given) | Non-toxic |  |
|  | 0.008 µg/mL | 0.008 µg/mL | 0.008 µg/mL |  | 0.0006 µg/mL |  | 0.004 µg/mL | 0.008 µg/mL |  |  |  | 0.008 µg/mL |  | CC(C)(C)c1ccc(CNC2CCCCC2NCc2ccc(C(C)(C)C)cc2)cc1.Cl (stereo not given) | Non-toxic |  |
|  | 0.008 µg/mL | 0.032 µg/mL | 0.016 µg/mL |  | 0.008 µg/mL |  | 0.002 µg/mL | 0.065 µg/mL |  |  |  | 0.032 µg/mL |  | Brc1ccc(CN[C@H]2CCCC[C@@H]2NCc2ccc(Br)cc2)cc1.Cl | Non-toxic |  |
|  | 0.008 µg/mL | 0.032 µg/mL | 0.008 µg/mL |  | 0.008 µg/mL |  | 0.008 µg/mL | 0.125 µg/mL |  |  |  | 0.125 µg/mL |  | Cl.Clc1ccc(CNC2CCCCC2NCc2ccc(Cl)cc2)cc1 (stereo not given) | Non-toxic |  |
|  | 0.032 µg/mL | 0.065 µg/mL | 0.032 µg/mL |  |  |  | 0.008 µg/mL | 0.125 µg/mL |  |  | 0.008 µg/mL | 0.065 µg/mL |  | Brc1cccc(CN[C@H]2CCCC[C@@H]2NCc2cccc(Br)c2)c1.Cl | Non-toxic |  |
